Source: the kinase profiling compilation of Christmann-Franck et al. (2016)

Legend:
Assay in all cases: radiometric filter-binding kinase assay, Kinase HotSpot
Conditions in all cases: compound 0.5 µM; ATP 10 µM
[1] = biological target: ADRBK2 (human) (UniProt P35626)
[2] = biological target: CAMK1G (human) (UniProt Q96NX5)
[3] = biological target: CAMK2D (human) (UniProt Q13557)
[4] = biological target: CAMK2G (human) (UniProt Q13555)
[5] = biological target: CDC42BPA (human) (UniProt Q5VT25)
[6] = biological target: CSNK1G3 (human) (UniProt Q9Y6M4)
[7] = biological target: DYRK2 (human) (UniProt Q92630)
[8] = biological target: EPHA2 (human) (UniProt P29317)
[9] = biological target: EPHA3 (human) (UniProt P29320)
[10] = biological target: EPHB1 (human) (UniProt P54762)
[11] = biological target: FGFR2 (human) (UniProt P21802)
[12] = biological target: GRK5 (human) (UniProt P34947)
[13] = biological target: HIPK3 (human) (UniProt Q9H422)
[14] = biological target: IRAK1 (human) (UniProt P51617)
[15] = biological target: IRAK4 (human) (UniProt Q9NWZ3)
[16] = biological target: MAPK11 (human) (UniProt Q15759)
[17] = biological target: MARK2 (human) (UniProt Q7KZI7)
[18] = biological target: MELK (human) (UniProt Q14680)
Sequence of MELK (human) (Q14680 whole entry, looked up): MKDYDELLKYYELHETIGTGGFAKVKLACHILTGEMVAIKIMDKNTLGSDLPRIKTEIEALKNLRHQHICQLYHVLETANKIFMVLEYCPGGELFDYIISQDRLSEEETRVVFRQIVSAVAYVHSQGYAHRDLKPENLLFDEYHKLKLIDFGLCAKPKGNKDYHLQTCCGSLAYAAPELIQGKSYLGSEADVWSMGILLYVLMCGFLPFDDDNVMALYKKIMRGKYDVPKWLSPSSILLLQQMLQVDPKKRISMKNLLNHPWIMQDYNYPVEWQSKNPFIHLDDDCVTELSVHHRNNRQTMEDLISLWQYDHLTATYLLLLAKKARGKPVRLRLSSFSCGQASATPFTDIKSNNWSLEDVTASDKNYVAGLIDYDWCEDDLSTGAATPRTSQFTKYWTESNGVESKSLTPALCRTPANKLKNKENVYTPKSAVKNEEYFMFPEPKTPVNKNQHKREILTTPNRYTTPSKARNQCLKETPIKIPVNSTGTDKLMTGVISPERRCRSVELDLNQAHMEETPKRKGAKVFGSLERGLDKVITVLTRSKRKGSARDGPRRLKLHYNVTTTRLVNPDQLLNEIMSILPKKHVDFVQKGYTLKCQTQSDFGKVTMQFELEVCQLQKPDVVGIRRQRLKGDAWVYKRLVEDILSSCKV

[19] = biological target: MLTK (human) (UniProt Q9NYL2)
[20] = biological target: MUSK (human) (UniProt O15146)
Sequence of MUSK (human) (O15146 whole entry, looked up): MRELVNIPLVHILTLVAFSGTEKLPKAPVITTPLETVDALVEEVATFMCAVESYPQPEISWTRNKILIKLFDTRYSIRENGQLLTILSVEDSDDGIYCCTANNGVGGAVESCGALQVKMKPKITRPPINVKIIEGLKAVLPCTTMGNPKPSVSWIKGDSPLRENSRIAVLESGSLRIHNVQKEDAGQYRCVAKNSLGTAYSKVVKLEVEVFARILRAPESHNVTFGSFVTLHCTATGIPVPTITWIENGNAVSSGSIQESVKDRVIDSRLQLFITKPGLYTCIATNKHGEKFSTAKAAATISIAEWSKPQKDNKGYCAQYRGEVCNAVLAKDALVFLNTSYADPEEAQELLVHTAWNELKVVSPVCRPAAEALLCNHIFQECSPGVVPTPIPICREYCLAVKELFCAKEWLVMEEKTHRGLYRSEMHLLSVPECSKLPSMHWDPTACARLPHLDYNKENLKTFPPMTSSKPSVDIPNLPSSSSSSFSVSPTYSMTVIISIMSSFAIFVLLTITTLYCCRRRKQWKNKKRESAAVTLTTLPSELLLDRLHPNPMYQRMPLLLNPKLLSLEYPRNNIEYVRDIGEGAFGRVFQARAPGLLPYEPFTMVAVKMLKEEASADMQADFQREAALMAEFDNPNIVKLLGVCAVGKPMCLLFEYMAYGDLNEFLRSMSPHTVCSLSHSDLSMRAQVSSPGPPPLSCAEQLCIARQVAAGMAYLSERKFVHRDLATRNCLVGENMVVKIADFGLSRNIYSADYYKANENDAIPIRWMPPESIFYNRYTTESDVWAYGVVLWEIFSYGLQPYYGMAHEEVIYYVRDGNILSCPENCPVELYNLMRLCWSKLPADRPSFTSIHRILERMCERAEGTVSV

[21] = biological target: NEK2 (human) (UniProt P51955)
[22] = biological target: NEK3 (human) (UniProt P51956)
[23] = biological target: NEK9 (human) (UniProt Q8TD19)
[24] = biological target: NUAK1 (human) (UniProt O60285)
[25] = biological target: NUAK2 (human) (UniProt Q9H093)
[26] = biological target: PAK4 (human) (UniProt O96013)
Sequence of PAK4 (human) (O96013 whole entry, looked up): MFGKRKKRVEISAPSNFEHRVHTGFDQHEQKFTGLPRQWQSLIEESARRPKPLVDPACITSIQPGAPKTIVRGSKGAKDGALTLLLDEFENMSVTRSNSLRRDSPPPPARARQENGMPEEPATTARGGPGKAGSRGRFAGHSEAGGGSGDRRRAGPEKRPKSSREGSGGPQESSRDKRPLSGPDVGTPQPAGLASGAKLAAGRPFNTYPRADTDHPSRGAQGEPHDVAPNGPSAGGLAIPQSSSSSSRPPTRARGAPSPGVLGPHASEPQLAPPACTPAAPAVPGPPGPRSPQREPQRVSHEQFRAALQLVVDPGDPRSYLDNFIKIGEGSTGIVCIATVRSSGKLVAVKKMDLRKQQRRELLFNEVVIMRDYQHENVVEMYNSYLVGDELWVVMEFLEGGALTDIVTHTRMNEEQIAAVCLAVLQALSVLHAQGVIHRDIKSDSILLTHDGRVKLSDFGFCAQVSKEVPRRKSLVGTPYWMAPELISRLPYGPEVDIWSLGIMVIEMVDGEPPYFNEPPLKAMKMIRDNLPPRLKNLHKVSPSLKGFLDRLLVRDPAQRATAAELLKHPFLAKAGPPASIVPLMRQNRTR

[27] = biological target: PAK7 (human) (UniProt Q9P286)
[28] = biological target: PASK (human) (UniProt Q96RG2)
[29] = biological target: PDGFRA (human) (UniProt P16234)
Sequence of PDGFRA (human) (P16234 whole entry, looked up): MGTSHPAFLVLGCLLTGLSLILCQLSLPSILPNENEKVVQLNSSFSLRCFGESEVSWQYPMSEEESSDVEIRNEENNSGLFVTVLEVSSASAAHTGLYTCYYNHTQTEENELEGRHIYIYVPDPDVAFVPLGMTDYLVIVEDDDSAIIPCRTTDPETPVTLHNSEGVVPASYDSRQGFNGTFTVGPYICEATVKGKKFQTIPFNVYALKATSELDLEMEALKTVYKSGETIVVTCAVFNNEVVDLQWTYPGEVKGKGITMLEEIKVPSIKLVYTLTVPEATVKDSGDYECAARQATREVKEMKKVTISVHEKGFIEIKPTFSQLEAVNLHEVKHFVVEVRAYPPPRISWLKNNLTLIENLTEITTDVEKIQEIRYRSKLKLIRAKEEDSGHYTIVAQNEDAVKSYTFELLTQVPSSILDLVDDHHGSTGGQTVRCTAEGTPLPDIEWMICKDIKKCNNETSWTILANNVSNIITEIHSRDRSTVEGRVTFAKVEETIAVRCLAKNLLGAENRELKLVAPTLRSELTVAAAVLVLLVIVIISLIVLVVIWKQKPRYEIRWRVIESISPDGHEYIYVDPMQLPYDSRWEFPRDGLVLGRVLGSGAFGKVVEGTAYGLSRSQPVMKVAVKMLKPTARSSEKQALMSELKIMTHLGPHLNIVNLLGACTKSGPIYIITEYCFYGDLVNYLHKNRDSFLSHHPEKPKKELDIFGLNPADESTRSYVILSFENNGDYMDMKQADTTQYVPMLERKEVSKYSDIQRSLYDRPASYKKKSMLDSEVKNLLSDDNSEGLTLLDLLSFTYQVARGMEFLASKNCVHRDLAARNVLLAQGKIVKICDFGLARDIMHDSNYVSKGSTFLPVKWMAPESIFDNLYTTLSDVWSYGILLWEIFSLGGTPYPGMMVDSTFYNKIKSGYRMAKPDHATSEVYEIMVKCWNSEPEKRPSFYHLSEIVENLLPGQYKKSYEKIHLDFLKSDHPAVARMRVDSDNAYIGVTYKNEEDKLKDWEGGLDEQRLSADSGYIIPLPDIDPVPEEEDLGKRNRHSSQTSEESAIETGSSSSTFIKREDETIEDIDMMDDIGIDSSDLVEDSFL

[30] = biological target: PNCK (human) (UniProt Q6P2M8)
[31] = biological target: PRKD2 (human) (UniProt Q9BZL6)
[32] = biological target: ROCK2 (human) (UniProt O75116)
[33] = biological target: ROS1 (human) (UniProt P08922)
[34] = biological target: RPS6KA1 KD1 KD2 (human) (UniProt Q15418)
Sequence of RPS6KA1 KD1 KD2 (human) (Q15418 whole entry, looked up): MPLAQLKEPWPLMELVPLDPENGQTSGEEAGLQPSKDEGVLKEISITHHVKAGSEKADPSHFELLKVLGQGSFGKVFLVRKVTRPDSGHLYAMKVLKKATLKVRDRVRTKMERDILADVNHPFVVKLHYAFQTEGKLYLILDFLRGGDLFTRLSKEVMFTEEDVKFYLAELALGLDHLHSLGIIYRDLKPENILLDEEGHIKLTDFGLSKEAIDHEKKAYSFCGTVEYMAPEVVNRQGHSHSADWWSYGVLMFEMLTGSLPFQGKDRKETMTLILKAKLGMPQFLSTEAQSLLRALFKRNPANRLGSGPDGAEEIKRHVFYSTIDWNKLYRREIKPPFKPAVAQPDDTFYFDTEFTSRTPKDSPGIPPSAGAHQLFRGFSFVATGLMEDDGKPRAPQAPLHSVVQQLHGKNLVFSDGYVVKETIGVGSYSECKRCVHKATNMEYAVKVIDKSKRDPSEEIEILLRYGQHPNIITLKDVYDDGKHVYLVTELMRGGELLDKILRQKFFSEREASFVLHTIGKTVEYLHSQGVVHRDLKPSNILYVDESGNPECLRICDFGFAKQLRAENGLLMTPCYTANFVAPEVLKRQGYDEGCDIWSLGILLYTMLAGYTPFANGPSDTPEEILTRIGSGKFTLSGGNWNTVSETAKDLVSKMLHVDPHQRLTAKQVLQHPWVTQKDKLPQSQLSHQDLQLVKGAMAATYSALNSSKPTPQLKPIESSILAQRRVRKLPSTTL

[35] = biological target: RPS6KA3 KD1 KD2 (human) (UniProt P51812)
[36] = biological target: RPS6KA6 KD1 KD2 (human) (UniProt Q9UK32)
[37] = biological target: SRMS (human) (UniProt Q9H3Y6)
[38] = biological target: STK17A (human) (UniProt Q9UEE5)
[39] = biological target: STK39 (human) (UniProt Q9UEW8)
[40] = biological target: TAOK3 (human) (UniProt Q9H2K8)
[41] = biological target: VRK1 (human) (UniProt Q99986)
[42] = biological target: ZAP70 (human) (UniProt P43403)

Sequence of CAMK2D (human) (Q13557 whole entry, looked up): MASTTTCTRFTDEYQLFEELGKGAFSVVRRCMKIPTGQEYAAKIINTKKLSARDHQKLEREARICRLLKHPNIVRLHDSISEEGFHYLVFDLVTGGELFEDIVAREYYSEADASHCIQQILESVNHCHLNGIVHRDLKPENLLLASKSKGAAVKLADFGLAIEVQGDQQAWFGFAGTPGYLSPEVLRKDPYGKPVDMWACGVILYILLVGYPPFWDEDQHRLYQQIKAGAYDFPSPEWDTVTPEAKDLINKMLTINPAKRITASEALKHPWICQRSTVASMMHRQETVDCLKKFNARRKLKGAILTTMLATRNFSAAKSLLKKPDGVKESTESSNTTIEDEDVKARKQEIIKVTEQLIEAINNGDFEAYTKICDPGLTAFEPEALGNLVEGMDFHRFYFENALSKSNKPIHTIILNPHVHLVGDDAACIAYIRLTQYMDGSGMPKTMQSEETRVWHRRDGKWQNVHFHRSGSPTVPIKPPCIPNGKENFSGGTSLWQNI
Sequence of CAMK2G (human) (Q13555 whole entry, looked up): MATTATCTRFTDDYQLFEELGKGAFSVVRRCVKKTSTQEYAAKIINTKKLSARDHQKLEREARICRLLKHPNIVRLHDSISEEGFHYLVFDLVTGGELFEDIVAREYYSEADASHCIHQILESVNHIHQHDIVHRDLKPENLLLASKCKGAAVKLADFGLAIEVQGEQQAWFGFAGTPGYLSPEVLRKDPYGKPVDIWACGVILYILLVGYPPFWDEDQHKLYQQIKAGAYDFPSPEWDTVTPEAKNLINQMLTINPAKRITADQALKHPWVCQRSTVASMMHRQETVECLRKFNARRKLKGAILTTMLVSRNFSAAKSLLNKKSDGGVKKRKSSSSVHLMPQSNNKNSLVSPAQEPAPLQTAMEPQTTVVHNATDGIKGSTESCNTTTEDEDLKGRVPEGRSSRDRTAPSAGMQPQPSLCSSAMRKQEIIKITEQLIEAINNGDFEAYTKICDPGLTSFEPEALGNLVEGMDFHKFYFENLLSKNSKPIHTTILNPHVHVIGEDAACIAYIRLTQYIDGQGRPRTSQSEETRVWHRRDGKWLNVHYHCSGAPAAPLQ

COc1cccc(-c2cc(=O)c3ccccc3o2)c1N
residual activity [1]: 94.7% | residual activity [2]: 96.5% | residual activity [3]: 91.5% | residual activity [4]: 96.6% | residual activity [5]: 98.5% | residual activity [6]: 97.7% | residual activity [7]: 92.5% | residual activity [8]: 105% | residual activity [9]: 96.3% | residual activity [10]: 88% | residual activity [11]: 97.8% | residual activity [12]: 97.3% | residual activity [13]: 101% | residual activity [14]: 98.8% | residual activity [15]: 86.4% | residual activity [16]: 108% | residual activity [17]: 84.9% | residual activity [18]: 94% | residual activity [19]: 103% | residual activity [20]: 94.2% | residual activity [21]: 86.1% | residual activity [22]: 102% | residual activity [23]: 102% | residual activity [24]: 98.1% | residual activity [25]: 82.9% | residual activity [26]: 88.1% | residual activity [27]: 99.7% | residual activity [28]: 86.1% | residual activity [29]: 103% | residual activity [30]: 96.8% | residual activity [31]: 103% | residual activity [32]: 91.5% | residual activity [33]: 97.5% | residual activity [34]: 92.7% | residual activity [35]: 93.6% | residual activity [36]: 95.2% | residual activity [37]: 104% | residual activity [38]: 96.9% | residual activity [39]: 86.8% | residual activity [40]: 77% | residual activity [41]: 89.4% | residual activity [42]: 107%

N#C/C(=C1/Nc2ccccc2S1)c1ccnc(NCCc2cccnc2)n1
residual activity [1]: 99.1% | residual activity [2]: 92.3% | residual activity [3]: 89.3% | residual activity [4]: 111% | residual activity [5]: 99.6% | residual activity [6]: 87.1% | residual activity [7]: 22.2% | residual activity [8]: 103% | residual activity [9]: 75.1% | residual activity [10]: 90.9% | residual activity [11]: 102% | residual activity [12]: 93.8% | residual activity [13]: 106% | residual activity [14]: 91.8% | residual activity [15]: 83.7% | residual activity [16]: 101% | residual activity [17]: 97.9% | residual activity [18]: 91.7% | residual activity [19]: 90.4% | residual activity [20]: 14.8% | residual activity [21]: 87.8% | residual activity [22]: 87.9% | residual activity [23]: 94.4% | residual activity [24]: 91.8% | residual activity [25]: 72.5% | residual activity [26]: 91.3% | residual activity [27]: 98.9% | residual activity [28]: 64.1% | residual activity [29]: 99% | residual activity [30]: 100% | residual activity [31]: 79.2% | residual activity [32]: 83.6% | residual activity [33]: 92.7% | residual activity [34]: 79% | residual activity [36]: 87% | residual activity [37]: 106% | residual activity [38]: 94% | residual activity [39]: 96.9% | residual activity [40]: 87.5% | residual activity [41]: 94.1% | residual activity [42]: 94.5%

N#Cc1c(NC(=O)c2cccc3ccccc23)sc2c1CCCC2
residual activity [1]: 106% | residual activity [2]: 97.7% | residual activity [3]: 97.7% | residual activity [4]: 99.6% | residual activity [5]: 103% | residual activity [6]: 104% | residual activity [7]: 119% | residual activity [9]: 103% | residual activity [10]: 95.9% | residual activity [11]: 110% | residual activity [12]: 98.2% | residual activity [13]: 116% | residual activity [14]: 104% | residual activity [15]: 92.9% | residual activity [16]: 104% | residual activity [17]: 105% | residual activity [18]: 83.3% | residual activity [19]: 93.2% | residual activity [20]: 94.8% | residual activity [21]: 88.1% | residual activity [22]: 93.2% | residual activity [23]: 96% | residual activity [24]: 97.3% | residual activity [25]: 76.7% | residual activity [26]: 95.2% | residual activity [27]: 103% | residual activity [28]: 98.3% | residual activity [29]: 101% | residual activity [30]: 104% | residual activity [31]: 126% | residual activity [32]: 98% | residual activity [33]: 96.8% | residual activity [34]: 86.1% | residual activity [35]: 99% | residual activity [36]: 101% | residual activity [37]: 106% | residual activity [38]: 104% | residual activity [39]: 94.6% | residual activity [40]: 90.2% | residual activity [41]: 87.2% | residual activity [42]: 95%
